Assay results published in US20260306500A1, “METHOD OF INHIBITING ADENOSINE TRIPHOSPHATE SECRETION, METHOD OF INHIBITING HEPATIC STELLATE CELL ACTIVATION, METHOD OF DEACTIVATING HEPATIC STELLATE CELL, METHOD OF TREATING HEPATIC FIBROSIS, METHOD OF TREATING NON-ALCOHOLIC STEATOHEPATITIS, AND METHOD OF TREATING PSORIASIS” (Kurume University, priority 2023, published 2026).

Assays:
mouse liver = assay: Thioacetamide-induced hepatic fibrosis in mice: histology, immunostaining and fibrosis score; assay type: in vivo; settings: 200 mg/kg p.o. three times per week
Protocol: Wild-type mice, […] (manufactured by Charles River Japan), were housed on a 12-hour light/dark cycle and fed a standard solid diet (5.4% fat, CRF-1, manufactured by Oriental Yeast Co., Ltd.) ad libitum. Thioacetamide (TAA, manufactured by FUJIFILM Wako Pure Chemical Corporation) was dissolved in physiological saline at 0.9% w/v. Eight-week-old mice were randomly assigned to three groups and continuously treated for 9 weeks according to the following scheme. At Week 9, all mice were euthanized 1 hour after administration of physiological saline or IMG.
Normal control group (N=6): Physiological saline was intraperitoneally administered to mice three times per week. Eight hours after each administration, a vehicle was orally administered to the mice.
TAA group (N=6): TAA (50 mg/kg, intraperitoneal) was administered to mice. Eight hours thereafter, physiological saline was orally administered to the mice. This treatment was performed three times per week for a total of 9 weeks.
TAA+IMG group (N=6): During the first week, physiological saline was orally administered to mice. Thereafter, imeglimin (IMG) at 200 mg/kg was orally administered three times per week for 8 weeks. The administration of IMG was performed 8 hours after intraperitoneal administration of TAA (50 mg/kg).
For immunohistochemical analysis, liver samples were fixed in 4% paraformaldehyde, embedded in paraffin, and then sectioned. The sections were stained with HE or PSR. In addition, the paraffin-embedded sections were subjected to immunostaining using an α-SMA monoclonal antibody (1:500, catalog No. A5228, manufactured by Sigma-Aldrich) and an F4/80 monoclonal antibody (1:200, catalog No. MCA497GA, manufactured by AbD Serotec). The cell specimens were observed using a microscope (BZ-X700 series, manufactured by Keyence) or a confocal laser microscope (FV1000, manufactured by Olympus Corporation). The number of F4/80-positive cells was counted in four high-power fields per section. The α-SMA-positive area and the PSR-positive area were quantified using the image analysis software Fiji-ImageJ (1.54f).
A histological score was determined by a blinded investigator using the NAFLD histological scoring system of the Nonalcoholic Steatohepatitis Clinical Research Network. The total NAFLD activity score (NAS) was calculated from the total of the individual scores for steatosis ([…]), lobular inflammation (F4/80), and hepatocyte ballooning. The range of each parameter was 0 to 2 (ballooning) or 3 (the other two scores), where 0 indicates normal and 2 or 3 indicates severe. Staging of fibrosis was based on the NASH fibrosis stages, and a fibrosis stage ranging from 0 to 4 was determined according to Reference H (David E. Kleiner et al., 2005, Design and validation of a histological scoring system for nonalcoholic fatty liver disease, Hepatology, 41, 1313-1321).
All results are expressed as the mean±standard error of the mean (S.E.M.). Statistical analyses were performed using GraphPad Prism 7.0 (GraphPad Software). Significance upon comparison between two groups was evaluated by an unpaired two-tailed Student's t-test. […]. Statistical significance among three or more groups was determined by two-way analysis of variance (ANOVA) with Tukey's or Dunnett's post hoc test. Coloc2 was used to perform image analysis, automatic thresholding, and pixel intensity correlation for statistical processing. Statistical significance was assumed when the P value was <0.05.

VNUT = assay: Inhibitory effect on VNUT (data not shown)
mouse auricle = assay: Imiquimod-induced psoriasis model, comparison with an anti-TNFα antibody (Example 19); assay type: in vivo
Protocol: The dorsal hair of mice was shaved and depilated (Day 0). To each of the left auricle and the depilated back of each mouse, 62.5 mg of 5% imiquimod cream (Beselna Cream 5%) was applied once daily a total of seven times (Days 1 to 7) in accordance with Example 18, to induce imiquimod-induced psoriasis (IMQ group). In the IMQ+IMG group, mice received oral administration of imeglimin (40 mg/kg) once daily (Day 1 to 7) after the imiquimod application. […] Thickness of the auricle was measured, and the degrees of erythema, desquamation, and infiltration in the affected area were rated on Days 1, 3, 5, 7, and 8 according to the PASI scoring of the DermNET Dermatology Resource (none: 0, mild: 1, moderate: 2, severe: 3, and very severe: 4). The resulting values were used to calculate the PASI score.
Further, for an auricle excised on Day 8, immunohistochemical staining was performed in the same manner as in Example 18, and auricular sections were imaged using a fluorescence microscope (BZ-X710; manufactured by Keyence Corporation).

[1] = system: ATP-loaded vesicles of keratinocytes; assay: Accumulation of MANT-ATP in granules of keratinocytes (confocal microscopy); assay type: cell-based, human; settings: 10 μM imeglimin, 19 hours, 0.3 mM MANT-ATP (FIG. 13)
Protocol: Keratinocytes were cultured in the same manner as in Example 8. Keratinocytes were cultured at 4×10^4 cells/ml in a glass-bottom dish (35 mm, manufactured by Matsunami Glass Ind., Ltd.) at 37° C. in 5% CO2 for 2 days. The culture medium was then replaced with a medium supplemented with MANT-ATP (manufactured by Invitrogen) at a final concentration of 0.3 mM, and further incubation was performed for 4.5 hours. Subsequently, imeglimin was added thereto to a final concentration of 10 μM, and further incubation was performed at 37° C. in 5% CO2 for 19 hours. Thereafter, the cells were washed twice with HBSS (manufactured by Gibco) and observed using an inverted confocal laser microscope (FV-1000 OSR, manufactured by Olympus Corporation).

[2] = PEP; cited from earlier work

## C[C@@H]1N=C(N)NC(N(C)C)=N1 [imeglimin]
Mouse liver; 8 weeks
  destruction of the lobular structure, hepatocyte ballooning, and inflammatory cell infiltration: reduced
  fibrosis stage: reducing the fibrosis stage
Mouse liver; 8 weeks (FIG. 27)
  TAA-induced increase in F4/80-positive macrophages: strongly suppressed
  TAA-induced increase in α-SMA-positive reaction: strongly suppressed
Mouse liver; 8 weeks (FIG. 28)
  TAA-induced increase in fibrosis score: suppressed
Mouse liver; 8 weeks, TAA+IMG vs TAA group, N=6
  PSR staining-positive area: significantly reduced
VNUT
  inhibitory effect on VNUT: neither imeglimin nor metformin exhibited a strong inhibitory effect
Mouse auricle; Day 8 (FIG. 42)
  inhibitory effects on psoriatic symptoms by TMG1 immunohistochemical images: supported by the immunohistochemical images of TMG1
Mouse auricle; imeglimin 40 mg/kg oral daily or infliximab 100 μg/mouse i.v. Days 1, 3, 5, N=5 (FIG. 38)
  erythema (excepted from the symptoms reduced): except erythema
Mouse auricle; imeglimin 40 mg/kg oral daily or infliximab 100 μg/mouse i.v. Days 1, 3, 5, N=5 (FIGS. 37-41)
  typical psoriatic symptoms induced by imiquimod, except erythema (thickness, desquamation, infiltration, PASI score): reduced
Mouse auricle; imeglimin 40 mg/kg oral vs infliximab 100 μg/mouse i.v.
  effect of imeglimin compared with infliximab: almost equivalent, or imeglimin was more effective
[1]
  accumulation of MANT-ATP in granules: absent

## C=C(OP(=O)(O)O)C(=O)O [PEP, phosphoenolpyruvic acid]
[2]
  energy of phosphate bond in vivo: -14.8 kcal/mol
